Numbered stars: 1 amine (or outer) side, 2 acyl side, 3 side chain; on linkers, the order of the positions; unused ones are H or OH. Bridge positions count the residues as written; N and C are the ends. Square brackets hold non-standard residues; d marks the D form. Peptide text beside a SMILES is read from it. * marks the point of attachment. ξ: configuration not given here. Phe(4-COOH) = N[C@@H](Cc1ccc(C(=O)O)cc1)C(=O)O; Phe(2,4-F2) = N[C@@H](Cc1ccc(F)cc1F)C(=O)O; Bip = N[C@@H](Cc1ccc(-c2ccccc2)cc1)C(=O)O; Phe(3-Me) = Cc1cccc(C[C@H](N)C(=O)O)c1; βAsp = O=C(O)[C@H](CC(=O)[*:2])N[*:1]; hArg = N=C(N)NCCCC[C@H](N)C(=O)O; Cha = N[C@@H](CC1CCCCC1)C(=O)O; Cit = NC(=O)NCCC[C@H](N)C(=O)O; aThr = C[C@H](O)[C@H](N)C(=O)O; Thr(3ξ) = CC(O)[C@H](N)C(=O)O; Carboxymethyl = O=C(O)C*; Orn = NCCC[C@H](N)C(=O)O; Aun = NCCCCCCCCCCC(=O)O; Dab = NCC[C@H](N)C(=O)O; Dap = NC[C@H](N)C(=O)O; AEEA = NCCOCCOCC(=O)O; Piv = CC(C)(C)C(=O)*

This assay deals with T1, PD-1/PD-L1 interaction (PE-labeled human PD-L1-Ig binding to Jurkat cell line over-expressing human PD-1) (Homo sapiens, UniProt Q15116).
T1 construct: expressed in transfected cells; host or cells: Jurkat
T1 sequence (Q15116 25-288): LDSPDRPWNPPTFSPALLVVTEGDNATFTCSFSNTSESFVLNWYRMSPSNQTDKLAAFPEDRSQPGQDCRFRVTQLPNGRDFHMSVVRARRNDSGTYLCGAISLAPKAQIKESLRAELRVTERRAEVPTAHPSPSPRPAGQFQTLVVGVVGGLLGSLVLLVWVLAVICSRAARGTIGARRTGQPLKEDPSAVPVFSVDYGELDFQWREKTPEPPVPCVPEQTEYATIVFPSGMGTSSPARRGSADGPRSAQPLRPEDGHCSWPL
The assay can be described thus: Jurkat-PD-1 Cell Binding High-Content Screening Assay (CBA). It is filed as cell-based. The note with it: Jurkat cell line over-expressing human PD-1; PE-labeled PD-L1-Ig 20 nM final; read-out: Jurkat hPD1-PDL1 IC50. The procedure, abridged:
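Binding of fluorescent PD-L1-Ig (20 nM final) to Jurkat-PD-1 cells was measured by automated imaging after 1 h, following a 2 h compound pre-treatment at 37° C.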
Consider `CC(C)C[C@H]1NC(=O)[C@H](CCCN)NC(=O)[C@H](Cc2ccc(O)cc2)NC(=O)[C@H](Cc2ccc(-c3ccccc3)cc2)NC(=O)[C@H](C(C)C)NC(=O)[C@H](Cc2c[nH]c3ccccc23)NC(=O)[C@H](CC(=O)O)NC(=O)[C@H](Cc2ccc(OCC(=O)O)cc2)NC(=O)[C@H](CN)NC(=O)CSC[C@@H](C(=O)N[C@@H](CCN)C(=O)NCCCCCCCCCCC(=O)O)NC(=O)[C@H](CN)NC(=O)[C@H](C(C)O)NC(=O)[C@H](CC2CCCCC2)NC(=O)[C@H](CCN)NC1=O` (stereo partly drawn) [Compound 3654] ({CH2CO}-[Dap]Y(Carboxymethyl)DWV[Bip]Y[Orn][dL][Dab][Cha][Thr(3ξ)][Dap]C[Dab][Aun]-OH; thioether N-14), for which the IC50 came to 45.1 nM.

With `CC(C)C[C@H]1NC(=O)[C@H](CCCN)NC(=O)[C@H](C(C)C)NC(=O)[C@H](Cc2ccc(-c3ccccc3)cc2)NC(=O)[C@H](C(C)C)NC(=O)[C@H](Cc2c[nH]c3ccccc23)NC(=O)[C@H](CC(=O)O)NC(=O)[C@H](Cc2ccc(OCC(=O)O)cc2)NC(=O)[C@H](CN)NC(=O)CSC[C@@H](C(=O)NCCOCCOCC(=O)N[C@@H](CCCCN)C(=O)NCCCCCCCCCCC(=O)O)NC(=O)[C@H](CCCCN)NC(=O)[C@H](C(C)C)NC(=O)[C@H](CC2CCCCC2)NC(=O)[C@H](CCN)NC1=O` [Compound 2595] ({CH2CO}-[Dap]Y(Carboxymethyl)DWV[Bip]V[Orn][dL][Dab][Cha]VKC[AEEA]K[Aun]-OH; thioether N-14), the IC50 was 34.1 nM.

Turning to `CC(=O)NCCCC[C@@H]1NC(=O)[C@H](Cc2ccc(OCC(=O)O)cc2)NC(=O)[C@H](Cc2ccc(-c3ccccc3)cc2)NC(=O)[C@H](Cc2ccc(OCC(=O)O)cc2)NC(=O)[C@H](Cc2cccc(C)c2)NC(=O)[C@H](CC(=O)O)NC(=O)[C@H](Cc2ccc(OCC(=O)O)cc2)NC(=O)[C@H](CCCNC(=N)N)NC(=O)CSC[C@@H](C(=O)N[C@@H](CCN)C(=O)NCCCCCCCCCCC(=O)O)NC(=O)[C@H](C(C)O)NC(=O)[C@H](C(C)C)NC(=O)[C@H](CC2CCCCC2)NC(=O)[C@H](CCN)NC(=O)[C@@H](CC(C)C)NC1=O` (stereo partly drawn) [Compound 3496] ({CH2CO}-RY(Carboxymethyl)D[Phe(3-Me)]Y(Carboxymethyl)[Bip]Y(Carboxymethyl)K(Ac)[dL][Dab][Cha]V[Thr(3ξ)]C[Dab][Aun]-OH; thioether N-14), the IC50 was 11 nM.

Take `CC(C)C[C@H]1NC(=O)[C@H](CCCN)NC(=O)[C@H](Cc2ccc(O)cc2)NC(=O)[C@H](Cc2ccc(-c3ccccc3)cc2)NC(=O)[C@H](C(C)C)NC(=O)[C@H](Cc2c[nH]c3ccccc23)NC(=O)[C@H](CC(=O)O)NC(=O)[C@H](Cc2ccc(OCC(=O)O)cc2)NC(=O)[C@H](CCCCNC(=N)N)NC(=O)CSC[C@@H](C(=O)N[C@@H](CCN)C(=O)NCCCCCCCCCCC(=O)O)NC(=O)[C@H](CCCNC(N)=O)NC(=O)[C@H](C(C)C)NC(=O)[C@H](CC2CCCCC2)NC(=O)[C@H](CCN)NC1=O` [Compound 3407] ({CH2CO}-[hArg]Y(Carboxymethyl)DWV[Bip]Y[Orn][dL][Dab][Cha]V[Cit]C[Dab][Aun]-OH; thioether N-14): the IC50 was 21.2 nM.

`CC(C)C[C@H]1NC(=O)[C@H](CCCN)NC(=O)[C@H](C(C)C)NC(=O)[C@H](Cc2ccc(-c3ccccc3)cc2)NC(=O)[C@H](C(C)C)NC(=O)[C@H](Cc2c[nH]c3ccccc23)NC(=O)[C@H](CC(=O)O)NC(=O)[C@H](Cc2ccc(OCC(=O)O)cc2)NC(=O)[C@H](Cc2ccc(OCC(=O)O)cc2)NC(=O)CSC[C@@H](C(=O)N[C@@H](CCN)C(=O)NCCOCCOCC(=O)NCCCCCCCCCCC(=O)O)NC(=O)[C@H](CN)NC(=O)[C@H](C(C)C)NC(=O)[C@H](CC2CCCCC2)NC(=O)[C@H](CCN)NC1=O` [Compound 2554] ({CH2CO}-Y(Carboxymethyl)Y(Carboxymethyl)DWV[Bip]V[Orn][dL][Dab][Cha]V[Dap]C[Dab][AEEA][Aun]-OH; thioether N-14): the IC50 was found to be 11.5 nM.

Take `Cc1cccc(C[C@@H]2NC(=O)[C@H](CC(=O)O)NC(=O)[C@H](Cc3ccc(OCC(=O)O)cc3)NC(=O)[C@H](CN)NC(=O)CSC[C@@H](C(=O)N[C@@H](CCN)C(=O)NCCOCCOCC(=O)NCCCCCCCCCCC(=O)O)NC(=O)[C@H](CCC(=O)O)NC(=O)[C@H](C(C)C)NC(=O)[C@H](Cc3ccc(F)cc3F)NC(=O)[C@H](CCN)NC(=O)[C@@H](CC(C)C)NC(=O)[C@H](CCCN)NC(=O)[C@H](Cc3ccc(OCC(=O)O)cc3)NC(=O)[C@H](Cc3ccc(-c4ccccc4)cc3)NC(=O)[C@H](Cc3ccc(C(=O)O)cc3)NC2=O)c1` [Compound 1272] ({CH2CO}-[Dap]Y(Carboxymethyl)D[Phe(3-Me)][Phe(4-COOH)][Bip]Y(Carboxymethyl)[Orn][dL][Dab][Phe(2,4-F2)]VEC[Dab][AEEA][Aun]-OH; thioether N-14): the IC50 turned out to be 74.2 nM.

Regarding `Cc1cccc(C[C@@H]2NC(=O)[C@H](CC(=O)O)NC(=O)[C@H](Cc3ccc(OCC(=O)O)cc3)NC(=O)[C@H](CN)NC(=O)CSC[C@@H](C(=O)NCCOCCOCC(=O)N[C@@H](CC(=O)NCCCCCCCCCCC(=O)O)C(=O)O)NC(=O)[C@H]([C@@H](C)O)NC(=O)[C@H](C(C)C)NC(=O)[C@H](CC3CCCCC3)NC(=O)[C@H](CCN)NC(=O)[C@@H](CC(C)C)NC(=O)[C@H](CCCN)NC(=O)[C@H](CCCNC(N)=O)NC(=O)[C@H](Cc3ccc(-c4ccccc4)cc3)NC(=O)[C@H](C(C)C)NC2=O)c1` [Compound 1031] ({CH2CO}-[Dap]Y(Carboxymethyl)D[Phe(3-Me)]V[Bip][Cit][Orn][dL][Dab][Cha]VTC[AEEA][βAsp][Aun]-OH; thioether N-14), the IC50 was 6.8 nM.

As to `CC(C)C[C@H]1NC(=O)[C@H](CCN)NC(=O)[C@H](C(C)C)NC(=O)[C@H](Cc2ccc(-c3ccccc3)cc2)NC(=O)[C@H](C(C)C)NC(=O)[C@H](Cc2c[nH]c3ccccc23)NC(=O)[C@H](CC(=O)O)NC(=O)[C@H](Cc2ccc(OCC(=O)O)cc2)NC(=O)[C@H](CCCCNC(=N)N)NC(=O)CSC[C@@H](C(=O)NCCOCCOCC(=O)NCCCCCCCCCCC(=O)O)NC(=O)[C@H](CCCN)NC(=O)[C@H](C(C)C)NC(=O)[C@H](CC2CCCCC2)NC(=O)[C@H](CCN)NC1=O` [Compound 3265] ({CH2CO}-[hArg]Y(Carboxymethyl)DWV[Bip]V[Dab][dL][Dab][Cha]V[Orn]C[AEEA][Aun]-OH; thioether N-14), the IC50 is 7.2 nM.

`Cc1cccc(C[C@@H]2NC(=O)[C@H](CC(=O)O)NC(=O)[C@H](Cc3ccc(OCC(=O)O)cc3)NC(=O)[C@H](CCNC(=O)C(C)(C)C)NC(=O)CSC[C@@H](C(=O)N[C@@H](CCN)C(=O)NCCCCCCCCCCC(=O)O)NC(=O)[C@H]([C@@H](C)O)NC(=O)[C@H](C(C)C)NC(=O)[C@H](CC3CCCCC3)NC(=O)[C@H](CCN)NC(=O)[C@@H](CC(C)C)NC(=O)[C@H](CCCN)NC(=O)[C@H](Cc3ccc(OCC(=O)O)cc3)NC(=O)[C@H](Cc3ccc(-c4ccccc4)cc3)NC(=O)[C@H](Cc3ccc(C(=O)O)cc3)NC2=O)c1` [Compound 2127] ({CH2CO}-[Dab](Piv)Y(Carboxymethyl)D[Phe(3-Me)][Phe(4-COOH)][Bip]Y(Carboxymethyl)[Orn][dL][Dab][Cha]VTC[Dab][Aun]-OH; thioether N-14): the IC50 amounted to 28.4 nM.

As to `CC(C)C[C@@H]1NC(=O)[C@H](Cc2c[nH]c3ccccc23)NC(=O)[C@H](CC(=O)O)NC(=O)[C@H](Cc2ccc(C(=O)O)cc2)NC(=O)[C@H](Cc2ccc(OCC(=O)O)cc2)NC(=O)CSC[C@@H](C(=O)NCCOCCOCC(=O)NCCCCCCCCCCC(=O)O)NC(=O)[C@H](CCCCN)NC(=O)[C@H](C(C)C)NC(=O)[C@H](CC2CCCCC2)NC(=O)[C@H](CCN)NC(=O)[C@@H](CC(C)C)NC(=O)[C@H](CCCN)NC(=O)[C@H](Cc2ccc(O)cc2)NC(=O)[C@H](Cc2ccc(-c3ccccc3)cc2)NC1=O` [Compound 1241] ({CH2CO}-Y(Carboxymethyl)[Phe(4-COOH)]DWL[Bip]Y[Orn][dL][Dab][Cha]VKC[AEEA][Aun]-OH; thioether N-14), the IC50 came out at 18.4 nM.

Regarding `CC[C@H](C)[C@@H]1NC(=O)[C@H](Cc2ccc(-c3ccccc3)cc2)NC(=O)[C@H](C(C)C)NC(=O)[C@H](Cc2cccc(C)c2)NC(=O)[C@H](CC(=O)O)NC(=O)[C@H](Cc2ccc(OCC(=O)O)cc2)NC(=O)[C@H](CN)NC(=O)CSC[C@@H](C(=O)NCCOCCOCC(=O)N[C@@H](CCN)C(=O)NCCCCCCCCCCC(=O)O)NC(=O)[C@H](CN)NC(=O)[C@H](C(C)C)NC(=O)[C@H](CC2CCCCC2)NC(=O)[C@H](CCN)NC(=O)[C@@H](CC(C)C)NC(=O)[C@H](CCCN)NC1=O` [Compound 2628] ({CH2CO}-[Dap]Y(Carboxymethyl)D[Phe(3-Me)]V[Bip]I[Orn][dL][Dab][Cha]V[Dap]C[AEEA][Dab][Aun]-OH; thioether N-14), the half-inhibitory concentration (IC50) was 15.1 nM.

For the compound `Cc1cccc(C[C@@H]2NC(=O)[C@H](CC(=O)O)NC(=O)[C@H](Cc3ccc(OCC(=O)O)cc3)NC(=O)[C@H](CC(N)=O)NC(=O)CSC[C@@H](C(=O)N[C@@H](CCC(=O)O)C(=O)NCCCCCCCCCCC(=O)O)NC(=O)[C@H]([C@H](C)O)NC(=O)[C@H](C(C)C)NC(=O)[C@H](CC3CCCCC3)NC(=O)[C@H](CCN)NC(=O)[C@@H](CC(C)C)NC(=O)[C@H](CCCN)NC(=O)[C@H](Cc3ccc(O)cc3)NC(=O)[C@H](Cc3ccc(-c4ccccc4)cc3)NC(=O)[C@H](C(C)C)NC2=O)c1` [Compound 3376] ({CH2CO}-NY(Carboxymethyl)D[Phe(3-Me)]V[Bip]Y[Orn][dL][Dab][Cha]V[aThr]CE[Aun]-OH; thioether N-14), the IC50 was determined as 14.8 nM.

For `CC(C)C[C@H]1NC(=O)[C@H](CCCN)NC(=O)[C@H](C(C)C)NC(=O)[C@H](Cc2ccc(-c3ccccc3)cc2)NC(=O)[C@H](C(C)C)NC(=O)[C@H](Cc2c[nH]c3ccccc23)NC(=O)[C@H](CC(=O)O)NC(=O)[C@H](Cc2ccc(OCC(=O)O)cc2)NC(=O)[C@H](C(C)O)NC(=O)CSC[C@@H](C(=O)N[C@@H](C)C(=O)NCCOCCOCC(=O)N[C@@H](CCN)C(=O)NCCCCCCCCCCC(=O)O)NC(=O)[C@H](C(C)O)NC(=O)[C@H](C(C)C)NC(=O)[C@H](CC2CCCCC2)NC(=O)[C@H](CCN)NC1=O` (stereo partly drawn) [Compound 3029] ({CH2CO}-[Thr(3ξ)]Y(Carboxymethyl)DWV[Bip]V[Orn][dL][Dab][Cha]V[Thr(3ξ)]CA[AEEA][Dab][Aun]-OH; thioether N-14), the 50% inhibitory concentration (IC50) came to 7.9 nM.

What is called IC50 is the midpoint of a concentration-inhibition curve.

(Values after patent US20260022142A1, “MACROCYCLIC IMMUNOMODULATORS” (Bristol-Myers Squibb Company, priority 2022, published 2026).)
